Source: patent US20190208782A1, “PROCESSING COMPOSITION FOR C[…] WEEDS” (Arch Chemicals, Inc., priority 2018, published 2019)

Experiments:
Format in all cases: in vivo
water hyacinth = test: Fluroxypyr ester and four potassium salt formulations as foliar application on water hyacinth (Example 5)
Protocol: Materials and Methods: Water hyacinth was obtained from field locations in Mississippi and cultured in a 300 gallon tank outdoors. Water in the culture tank was amended with 30 mg/L Miracle-Gro fertilizer (14-8-16) every week to maintain plant growth. Once a sufficient density of water hyacinth had been achieved in the culture tank, rosettes of similar size were harvested and divided so that six to seven rosettes were placed into each of 33, 100 gallon treatment tanks. The treatment tanks were filled to a depth of 45 cm with water. Water was amended with 30 mg/L of Miracle-Gro fertilizer to maintain plant growth. Plants were allowed to grow until the water surface in each tank had been covered by water hyacinth.
After the growth period plants were treated as a foliar spray based on the formulations and rates in Table 7. The treatments contained the fluroxypyr herbicide in an amount of 15% by weight. Each surfactant was added in an amount of 10% by weight. The remainder of the formulation was distilled water. Treatments were applied using water as a carrier in a fine foliar spray at a total spray volume of 100 gal/acre using a CO2 pressurized backpack sprayer and single nozzle boom. AB Brand Adjuvant was included in the herbicide solution at a rate of 0.25% v:v.
After treatment, each tank was rated for percent control from 0 to 100% control every week for four weeks. At four weeks after treatment (WAT) a 0.1 m^2 PVC quadrat was used to harvest 1 biomass sample from each tank if living biomass was present. Biomass samples were placed into labeled paper bags, dried in a forced air oven at 50 C for five days, and then weighed to determine dry weight biomass (g/DW/m^2). Differences between treatments were analyzed using ANOVA and means separated using a Fisher's Protected LSD test. All analyses were conducted a p≤0.05 significance level.

Eurasian watermilfoil = test: Fluroxypyr potassium salt formulations vs ester on Eurasian watermilfoil under mesocosm conditions (Example 4); conditions: 200 ug/L, 24 h exposure, 4 WAT
Protocol: Eurasian watermilfoil was obtained from cultures. Two apical tips approximately 15 cm long were planted into each of 204, plastic containers (940 mL). The containers were filled with potting soil and amended with 2 g/L/soil Osmocote® fertilizer 19-6-12. Four containers of potted Eurasian watermilfoil were placed into each of 51 mesocosm tanks. Tanks were filled to a volume of 257 L and plants allowed to grow approximately 2-3 weeks prior to herbicide treatments, or until plants were at or near the water surface. Pre-treatment biomass was harvested from three tanks set up with pots for this purpose. Biomass was harvested by collecting aboveground biomass of plants from all of the pots in each of the pretreatment tanks. Plant material was placed into individually labeled paper bags, dried in a force air oven at 50 C for at least 48 h, and then weighed to assess biomass,
After pre-treatment data collection, liquid herbicides were applied as a concentrated aqueous formulation using the rates and products outlined in Table 6. […]
Four weeks after treatment (WAT), living plants were, harvested, sorted to aboveground biomass (if any), dried in a forced air oven at 50 C for at least 48 h, and weighed for biomass determination. Differences between treatments were analyzed using ANOVA with treatment means separated using a Fisher's Protected LSD test at a p≤0.05 significance level.

[1] = tested on: sago pondweed (Stuckenia pectinata); test: Native plant selectivity screening in aquaria, sago pondweed (Example 6); conditions: 50-3200 ug/L
Protocol: Materials and Methods: The study was conducted in an indoor aquaria facility. Elodea (Elodea canadensis) was obtained from cultures. Two apical tips approximately 10 cm long were planted into each of 48, plastic containers (16 oz. plastic cups). The containers were filled with potting soil and amended with 2 g/L Osmocote® fertilizer 19-6-12. A layer of sand was placed on top of the sediment in each container to prevent sediment re-suspension in the aquaria. Two containers of potted elodea were placed into each of 24 aquaria measuring 11.5 in×11.5 in×24 in. Additionally, sago pondweed (Stuckenia pectinata) tubers were obtained. The tubers were floated in shallow containers filled with water until new sprouts began to grow.
Once sprouted, two tubers were planted into 16 oz containers in a similar fashion as elodea. Two containers of potted sago pondweed were placed into each of the 24 aquaria, so that each aquarium had 4 potted plants (2 pots of each species). […]
At four weeks after treatment (WAT), plants were, harvested, sorted to aboveground biomass, dried in a forced air oven at 50 C for at least 48 h, and weighed for biomass determination (g/DW/aquaria). Differences between treatments were analyzed using an ANOVA, and if treatment differences were detected; means were separated using a Tukey's All-Pairwise comparison test. […]

What does the source list for `CCCCCCC(C)OC(=O)COc1nc(F)c(Cl)c(N)c1Cl` (stereo not drawn) [Fluroxypyr ester, [(4-amino-3,5-dichloro-6-fluoro-2-pyridinyl)oxy]acetic acid, 1-methylheptyl ester]?
efficacy on water hyacinth biomass relative to the other fluroxypyr treatments (water hyacinth; 4 WAT, Ester 8 oz/acre, potassium salt formulations 10 oz/acre, FIG. 6): not as efficacious as the other fluroxypyr treatments; Mean percent control ratings of water hyacinth (water hyacinth; 8 oz/acre foliar, 1 WAT): 20%; Mean percent control ratings of water hyacinth (water hyacinth; 8 oz/acre foliar, 2 WAT): 25%; Mean percent control ratings of water hyacinth (water hyacinth; 8 oz/acre foliar, 3 WAT): 55%; Mean percent control ratings of water hyacinth (water hyacinth; 8 oz/acre foliar, 4 WAT): 75%; Mean percent control ratings of water hyacinth (water hyacinth; 16 oz/acre foliar, 1 WAT): 20%; Mean percent control ratings of water hyacinth (water hyacinth; 16 oz/acre foliar, 2 WAT): 45%; Mean percent control ratings of water hyacinth (water hyacinth; 16 oz/acre foliar, 3 WAT): 85%; Mean percent control ratings of water hyacinth (water hyacinth; 16 oz/acre foliar, 4 WAT): 95%; Eurasian watermilfoil biomass reduction (Eurasian watermilfoil): 98%; adverse effects on sago pondweed ([1]; four weeks of static exposure): did not exhibit any adverse effects; visible herbicide symptoms on sago pondweed ([1]; throughout the study, static exposure): no visible herbicide symptoms
